In US4840658A, “Algicidal composition” (Sumitomo Chemical Company, Limited, priority 1986, dated 1989):
Counter-ions that a name gives are not always drawn. Like-named read-outs stand apart in the source and are kept apart here.

Assays:
Heterosigma akashiwo [1] = assay: Effect of unsaturated higher fatty acids on viability of Heterosigma akashiwo (cytolysis); format: cell-based; settings: 0.5 h
Procedure: Effect of the several unsaturated higher fatty acids on viability of Heterosigma akashiwo.
(§1) Heterosigma akashiwo was incubated in PES medium under 14 hr photoperiod (3000 lux) condition at 20° C. The effects of test compounds were examined on the plankton at exponential growth phase and the medium at the phase generally contained 7×10^4 cells/ml.
(§2) The unsaturated higher fatty acid was accurately weighed and dissolved in benzene. An aliquot of the solution was transferred in a 10 ml volumetric flask. The benzene was removed in vacuo and the residue was dissolved in 0.2 ml of ethanol. A PES medium was added bit by bit to make a 10 ml solution.
(§3) Each of 1 ml of the plankton medium was transferred to the wells of a multi-dish at the cell number of 7×10^4. After good conditions of the plankton were confirmed under an inverted microscope, 1 ml of graded levels of the test solution was mixed. At specified intervals, morphological examination was conducted under the microscope, and effect concentration (EC100 ) was defined as the minimum concentration at which all of the plankton tested were cytolyzed 30 min after introduction of a test material.

[2] = tested on: Killifish (Oryzias latipes); assay: Acute toxicity of unsaturated higher fatty acids to killifish; format: in vivo; settings: adult killifish, 48 hr, 25° C.
Procedure: Acute toxicity of the several unsaturated higher fatty acids.
Killifish (Oryzias latipes) at adult stage were acclimated to laboratory conditions in dechlorinated water. Fish were withheld from food for 24 hr prior to the test.
Graded levels of the compounds in 0.5 ml ethanol were added to glass vessels, and then mixed with 100 ml of dechlorinated fresh water. Five fish were introduced to the vessel and maintained for 48 hr at 25° C.
As a solvent control, 0.5% ethanol solution was used.

Chaetoceros debile = assay: Effects of OTA on viability of plankton species; format: cell-based
Procedure: as §1, §2, §3
(§4) Effect of 6Z, 9Z, 12Z, 15Z-octadecateraeonic acid (OTA) on viability of several plankton species.
(§5) The test system was the same as in Experiment 1, except test concentration of 5 and 25 ppm and test duration of 48 hr.

Chattonella antiqua = assay: Effects of OTA on viability of plankton species; format: cell-based
Procedure: as §1, §2, §3, §4, §5

Chattonella marina = assay: Effects of OTA on viability of plankton species; format: cell-based
Procedure: as §1, §2, §3, §4, §5

Chlamydomonas sp. = assay: Effects of OTA on viability of plankton species; format: cell-based
Procedure: as §1, §2, §3, §4, §5

Cryptomonas sp. = assay: Effects of OTA on viability of plankton species; format: cell-based
Procedure: as §1, §2, §3, §4, §5

Eutreptia sp. = assay: Effects of OTA on viability of plankton species; format: cell-based
Procedure: as §1, §2, §3, §4, §5

Gymnodinium nagasakiense = assay: Effects of OTA on viability of plankton species; format: cell-based
Procedure: as §1, §2, §3, §4, §5

Gymnodinium sanguineum = assay: Effects of OTA on viability of plankton species; format: cell-based
Procedure: as §1, §2, §3, §4, §5

Hafniomonas reticulata = assay: Effects of OTA on viability of plankton species; format: cell-based
Procedure: as §1, §2, §3, §4, §5

Heterocapsa triguetra = assay: Effects of OTA on viability of plankton species; format: cell-based
Procedure: as §1, §2, §3, §4, §5

Heterosigma akashiwo [3] = assay: Effects of OTA on viability of plankton species; format: cell-based
Procedure: as §1, §2, §3, §4, §5

Nephroselmis sp. = assay: Effects of OTA on viability of plankton species; format: cell-based
Procedure: as §1, §2, §3, §4, §5

Olisthodiscus luteus = assay: Effects of OTA on viability of plankton species; format: cell-based
Procedure: as §1, §2, §3, §4, §5

Oltmannsiella sp. = assay: Effects of OTA on viability of plankton species; format: cell-based
Procedure: as §1, §2, §3, §4, §5

Prorocentrum micans = assay: Effects of OTA on viability of plankton species; format: cell-based
Procedure: as §1, §2, §3, §4, §5

Pterosperma cristatum = assay: Effects of OTA on viability of plankton species; format: cell-based
Procedure: as §1, §2, §3, §4, §5

Pyraminonas sp. = assay: Effects of OTA on viability of plankton species; format: cell-based
Procedure: as §1, §2, §3, §4, §5

Skeletonema costatum = assay: Effects of OTA on viability of plankton species; format: cell-based
Procedure: as §1, §2, §3, §4, §5

Stephanopyris palmeriana = assay: Effects of OTA on viability of plankton species; format: cell-based
Procedure: as §1, §2, §3, §4, §5

[4] = tested on: Cricosphaera roscoffensis; assay: Effects of OTA on viability of plankton species; format: cell-based; set-up: key: +: 100% cytolysis of planktons after 2 hr; ±: No cytolysis but no movement; -: No effect
Procedure: as §1, §2, §3, §4, §5

Tetraselmis cordiformis = assay: Effects of OTA on viability of plankton species; format: cell-based; set-up: key: +: 100% cytolysis of planktons after 2 hr; ±: No cytolysis but no movement; -: No effect
Procedure: as §1, §2, §3, §4, §5

[5] = tested on: marine dinoflagellates (Dinophyceae); assay: Algicidal activity against marine dinoflagellates; format: cell-based
[6] = minimum concentration at which all plankton cytolyzed 30 min after introduction, read-out: EC100

## CCC=CCC=CCC=CCC=CCC=CCCCC(=O)O [5,8, 11, 14, 17-eicosapentaenoic acid]
Heterosigma akashiwo [1]; [6]
  EC100: 2.5 µg/mL
[2]
  LC100: > 30 ppm
  Maximum no effect concentration: < 25 ppm

## CCC=CCC=CCC=CCC=CCC=CCCCC(=O)O [Na salt of 5, 8, 11, 14, 17-eicosapentaenoic acid]
[2]
  LC100: > 50 ppm
  Maximum no effect concentration: < 30 ppm

## CC/C=C\C/C=C\C/C=C\C/C=C\CCCCC(=O)O [OTA, 6Z, 9Z, 12Z, 15Z-octadecatetraenoic acid]
Heterosigma akashiwo [1]; [6]
  EC100: 2.5 µg/mL
Chaetoceros debile; 5 ppm
  Effect on viability: + (100% cytolysis of planktons after 2 hr)
Chaetoceros debile; 25 ppm
  Effect on viability: + (100% cytolysis of planktons after 2 hr)
Chattonella antiqua; 5 ppm
  Effect on viability: + (100% cytolysis of planktons after 2 hr)
Chattonella antiqua; 25 ppm
  Effect on viability: + (100% cytolysis of planktons after 2 hr)
Chattonella marina; 5 ppm
  Effect on viability: + (100% cytolysis of planktons after 2 hr)
Chattonella marina; 25 ppm
  Effect on viability: + (100% cytolysis of planktons after 2 hr)
Chlamydomonas sp.; 5 ppm
  Effect on viability: + (100% cytolysis of planktons after 2 hr)
Chlamydomonas sp.; 25 ppm
  Effect on viability: + (100% cytolysis of planktons after 2 hr)
Cryptomonas sp.; 5 ppm
  Effect on viability: + (100% cytolysis of planktons after 2 hr)
Cryptomonas sp.; 25 ppm
  Effect on viability: + (100% cytolysis of planktons after 2 hr)
Eutreptia sp.; 5 ppm
  Effect on viability: + (100% cytolysis of planktons after 2 hr)
Eutreptia sp.; 25 ppm
  Effect on viability: + (100% cytolysis of planktons after 2 hr)
Gymnodinium nagasakiense; 5 ppm
  Effect on viability: + (100% cytolysis of planktons after 2 hr)
Gymnodinium nagasakiense; 25 ppm
  Effect on viability: + (100% cytolysis of planktons after 2 hr)
Gymnodinium sanguineum; 5 ppm
  Effect on viability: + (100% cytolysis of planktons after 2 hr)
Gymnodinium sanguineum; 25 ppm
  Effect on viability: + (100% cytolysis of planktons after 2 hr)
Hafniomonas reticulata; 5 ppm
  Effect on viability: + (100% cytolysis of planktons after 2 hr)
Hafniomonas reticulata; 25 ppm
  Effect on viability: + (100% cytolysis of planktons after 2 hr)
Heterocapsa triguetra; 5 ppm
  Effect on viability: + (100% cytolysis of planktons after 2 hr)
Heterocapsa triguetra; 25 ppm
  Effect on viability: + (100% cytolysis of planktons after 2 hr)
Heterosigma akashiwo [3]; 5 ppm
  Effect on viability: + (100% cytolysis of planktons after 2 hr)
Heterosigma akashiwo [3]; 25 ppm
  Effect on viability: + (100% cytolysis of planktons after 2 hr)
Nephroselmis sp.; 5 ppm
  Effect on viability: + (100% cytolysis of planktons after 2 hr)
Nephroselmis sp.; 25 ppm
  Effect on viability: + (100% cytolysis of planktons after 2 hr)
Olisthodiscus luteus; 5 ppm
  Effect on viability: + (100% cytolysis of planktons after 2 hr)
Olisthodiscus luteus; 25 ppm
  Effect on viability: + (100% cytolysis of planktons after 2 hr)
Oltmannsiella sp.; 5 ppm
  Effect on viability: + (100% cytolysis of planktons after 2 hr)
Oltmannsiella sp.; 25 ppm
  Effect on viability: + (100% cytolysis of planktons after 2 hr)
Prorocentrum micans; 5 ppm
  Effect on viability: + (100% cytolysis of planktons after 2 hr)
Prorocentrum micans; 25 ppm
  Effect on viability: + (100% cytolysis of planktons after 2 hr)
Pterosperma cristatum; 5 ppm
  Effect on viability: + (100% cytolysis of planktons after 2 hr)
Pterosperma cristatum; 25 ppm
  Effect on viability: + (100% cytolysis of planktons after 2 hr)
Pyraminonas sp.; 5 ppm
  Effect on viability: + (100% cytolysis of planktons after 2 hr)
Pyraminonas sp.; 25 ppm
  Effect on viability: + (100% cytolysis of planktons after 2 hr)
Skeletonema costatum; 5 ppm
  Effect on viability: + (100% cytolysis of planktons after 2 hr)
Skeletonema costatum; 25 ppm
  Effect on viability: + (100% cytolysis of planktons after 2 hr)
Stephanopyris palmeriana; 5 ppm
  Effect on viability: + (100% cytolysis of planktons after 2 hr)
Stephanopyris palmeriana; 25 ppm
  Effect on viability: + (100% cytolysis of planktons after 2 hr)
[4]; 5 ppm
  Effect on viability: ±
[4]; 25 ppm
  Effect on viability: ±
Tetraselmis cordiformis; 5 ppm
  Effect on viability: ±
Tetraselmis cordiformis; 25 ppm
  Effect on viability: ±
[2]
  LC100: > 25 ppm
  Maximum no effect concentration: < 20 ppm
[5]
  algicidal activity: strong algicidal activity

## CCCCC/C=C\C/C=C\C/C=C\C/C=C\CCCC(=O)O [arachidonic acid]
Heterosigma akashiwo [1]
  EC100: 2.5 µg/mL

## CCCCC/C=C\C/C=C\CCCCCCCC(=O)O [linoleic acid]
Heterosigma akashiwo [1]; [6]
  EC100: 25 µg/mL

## CCCCCCCC/C=C\CCCCCCCC(=O)O [oleic acid]
Heterosigma akashiwo [1]
  EC100: 70 to 80 µg/mL

## CC/C=C\C/C=C\C/C=C\CCCCCCCC(=O)[O-].[Na+] [sodium linolenate]
[2]
  LC100: > 150 ppm
  Maximum no effect concentration: < 100 ppm

## CCCCC/C=C\C/C=C\C/C=C\CCCCC(=O)O [γ-linolenic acid]
Heterosigma akashiwo [1]; [6]
  EC100: 25 µg/mL
[2]
  LC100: > 50 ppm
  Maximum no effect concentration: < 40 ppm
